From patent US10238713B2, “Cyclic tetrapeptides and therapeutic applications thereof” (LODZ UNIVERSITY OF TECHNOLOGY, priority 2010, dated 2019)
Non-standard residues stand in square brackets, D forms with d. Residues, ends and D or L forms follow the SMILES beside them. β3hF = N[C@H](CC(=O)O)Cc1ccccc1

What was measured:
[1] = test system: BALB/c mice, immune response to TDI; assay: Toluene diisocyanate (TDI)-induced ear inflammation in BALB/c mice; type: in vivo
Protocol: BALB/c female mice, 8-10 weeks old, were delivered by the Institute of Laboratory Medicine, Łódź, Poland. The mice were fed a commercial, pelleted food and water ad libitum. The local ethics committee approved the study.
The test was performed according to Yamamoto, Eur. J. Pharmacol., 2006, 550, 166-172, with minor modifications. Mice were shaved on the abdomen (2×2 cm area) and after 24 h 100 μl of 3% TDI in acetone was applied through 3 consecutive days. After 14 days the reaction was elicited by application of 50 μl of 0.3% TDI on both sides of the ears. The procedure was repeated 5 times every 3 days. Ear thickness was measured using a spring caliper (Mitutoyo) 5 h and 24 h after each challenge with TDI.
Compound I-A was applied topically in the form of 0.1% ointment on both sides of the ears (total volume of 100 μl-50 μl per ear), one hour after each challenge with TDI. The reference drugs were applied in a similar way.
Superficial parotid, mandibular and accessory mandibular lymph nodes were isolated, homogenized by pressing against a stainless screen into PBS, washed 2× with PBS and re-suspended in PBS containing 0.2% Trypan blue. The total and nonviable cell numbers were counted using a light microscope and Bürker's hemocytometer.
Mice were subjected to halothane anesthesia and bled from the retro-orbital plexus, followed by the cervical dislocation. The number of blood leukocytes was determined by dilution of blood in Turk's solution and counting the cells in a hemocytometer. Blood smears were prepared on microscope glass, dried and stained with Giemsa and May-Grünwald reagents. The smears were subsequently reviewed histologically. The cell numbers were presented per 1 μl and the blood cell compositions as a percentage of a given cell type.
Mice were given 1 mg of Evans blue in 0.2 ml of 0.9% NaCl, intravenously. After 30 min mice were sacrificed, the ears were cut off, weighed and immersed in 50 μl of 1M KOH for 18 h at 37° C. The dye was extracted from the ears using 450 μl of 0.2 M phosphate acid and acetone (5:13 ratio). The samples were centrifuged at 3,000 rpm for 15 min. The optical densities (OD) of the supernatants were measured at 630 nm. The amount of Evans blue (g/ml) was determined based on a standard curve. The results were presented as the amount of Evans blue per 100 mg of wet tissue. Mice treated only with the eliciting dose of antigen served as a background control.
The auricles were fixed in 4% formalin solution for 48 h, washed for 24 h, dehydrated in an alcohol series and embedded in paraffin. The paraffin blocks were sliced in a Micron HM310 microtome into […]. The sections were stained with haematoxylin and eosin and with toluidine blue. Histological analysis was performed using a Nikon Eclipse 801light microscope. Morphometric estimations of neutrophils, macrophages, lymphocytes and mast cells in the perivascular and subepithelial connective tissue were performed on the histological slides containing cross-sections of auricles. Cells were counted on an area of 0.07 mm^2 at 400× magnification. Morphometric analysis was performed using an imagine software NIS-Elements (Nikon). For every preparation examined, 25 enumerations of neutrophils, macrophages, lymphocytes and mast cells were carried out.

[2] = test system: mice, carrageenan-induced foot pad edema; assay: Carrageenan-induced foot-pad edema test; type: in vivo, mouse; settings: 4 h after carrageenan; peptides 250 μg i.p., DEX 25 μg i.p., 30 min before; FIGS. 17A-17C
Method in brief: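 Mice received peptide 250 μg i.p. (DMSO/0.9% NaCl vehicle) 30 min before intradermal injection of 50 μl 2% carrageenan into the hind foot pad; dexamethasone 25 μg i.p. as reference. Foot-pad thickness measured by spring caliper at 2, 3 and 4 h; mean increase in mm ±SE, 5 mice/group.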

## O=C1C[C@H](Cc2ccccc2)NC(=O)[C@@H]2CCCN2C(=O)[C@@H]2CCCN2C(=O)[C@H](Cc2ccccc2)N1 [I-A] (cyclo(FPP[β3hF]))
[1]; 5 h after challenge, Day 14, topical 1 h after each TDI challenge, FIG. 10A
  ear thickness, P vs Control: 0.0005
[1]; 5 h after challenge, Day 17, FIG. 10A
  ear thickness, P vs Control: 0.0001
[1]; 5 h after challenge, Day 20, FIG. 10A
  ear thickness, P vs Control: 0.0001
[1]; 5 h after challenge, Day 23, FIG. 10A
  ear thickness, P vs Control: 0.0001
[1]; 5 h after challenge, Day 27, FIG. 10A
  ear thickness, P vs Control: 0.0001
[1]; 24 h after challenge, Day 14, FIG. 10B
  ear thickness, P vs Control: 0.0001
[1]; 24 h after challenge, Day 17, FIG. 10B
  ear thickness, P vs Control: 0.0001
[1]; 24 h after challenge, Day 20, FIG. 10B
  ear thickness, P vs Control: 0.0006
[1]; 24 h after challenge, Day 23, FIG. 10B
  ear thickness, P vs Control: 0.0001
[1]; 24 h after challenge, Day 27, FIG. 10B
  ear thickness, P vs Control: 0.0001
[1]; 24 h after the fifth challenge with TDI (day 28), FIG. 11
  permeability of capillary blood vessels in the Evans blue test, P vs Control: 0.030
[1]; ANOVA of Kruskal-Wallis, FIG. 12
  total number of cells in the draining lymph nodes, P vs Control: 0.0001
[1]; ANOVA, FIG. 13
  numbers of circulating leukocytes, P vs Control: 0.0001
[1]; FIG. 12
  total number of cells in the draining lymph nodes: reduction of the lymph node cell numbers almost to the background levels
[1]; FIG. 14
  blood cell composition, Eosinophils (E), P vs Control: 0.0001
  blood cell composition, Lymphocytes (L), P vs Control: 0.0043
  blood picture (neutrophil and eosinophil contents): normalized
[1]; FIG. 15
  auricle Ne (neutrophils), P vs Control: 0.0151
[1]; area 0.07 mm^2, cell type not stated, sensitized untreated control: 20 mastocytes, 23 neutrophils, FIG. 15
  cell numbers in the auricles after treatment: 14.8 cells per the analyzed area
[2]
  foot pad edema (increase of foot pad thickness), P vs Control: 0.0001
